The values below come from patent publication US8299056B2 (Signal Pharmaceuticals, LLC, priority 2008, dated 2012).

For the experiment, the target named is T1, Syk (Homo sapiens, UniProt P43405).
T1 construct: purchased Carna Biosciences
Kind of experiment: Syk HTRF assay. Type of experiment: biochemical. Particulars: read-out: Activity Level (Syk HTRF assay IC50). In short, it runs like this: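 Read-out is the 665 nm/615 nm time-resolved fluorescence ratio after EDTA stop and Eu-anti-phosphotyrosine plus streptavidin-DyLight 647 detection. Reaction ran 1 h at room temperature with start mix of 87.5 μM ATP and 80 nM substrate peptide in pH 7.6 HEPES/MgCl2 buffer.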
As a reminder, the IC50 is the midpoint of a concentration-inhibition curve. Turning to `CC(=O)Nc1ccc(-c2cccc3nc(Nc4ccccc4)nn23)cc1` [compound 79, N-(4-(2-(phenylamino)-[1,2,4]triazolo[1,5-a]pyridin-5-yl)phenyl)acetamide], the concentration for half-maximal inhibition (IC50) was 250 to 500 nM.
The same measure for `Fc1ccccc1-c1cccc2nc(Nc3ccccc3)nn12` [compound 80, 5-(2-fluorophenyl)-N-phenyl-[1,2,4]triazolo[1,5-a]pyridin-2-amine]: 1000 to 10000 nM.
Turning to `Fc1cccc(-c2cccc3nc(Nc4ccccc4)nn23)c1` [compound 81, 5-(3-fluorophenyl)-N-phenyl-[1,2,4]triazolo[1,5-a]pyridin-2-amine], the IC50 lay in the range of 500 to 1000 nM.
For `Nc1ccc(-c2cccc3nc(Nc4ccccc4)nn23)cc1` [compound 82, 5-(4-aminophenyl)-N-phenyl-[1,2,4]triazolo[1,5-a]pyridin-2-amine], the IC50 lay within 250 to 500 nM.
The value for `COCc1n[nH]c2cc(Nc3nc4cccc(CC5CCOCC5)n4n3)ccc12` [compound 104, N-(3-(methoxymethyl)-1H-indazol-6-yl)-5-((tetrahydro-2H-pyran-4-yl)methyl)-[1,2,4]triazolo[1,5-a]pyridin-2-amine] was 0.005 to 250 nM; that for `Cc1cc(Nc2nc3cccc(N[C@H]4CC[C@@H](O)CC4)n3n2)cnc1N1CCOCC1` [compound 105, cis-4-(2-(5-methyl-6-morpholinopyridin-3-ylamino)-[1,2,4]triazolo[1,5-a]pyridin-5-ylamino)cyclohexanol] was 0.005 to 250 nM.
On to `c1cc(CC2CCOCC2)n2nc(Nc3cnc4cn[nH]c4c3)nc2c1` [compound 106, N-(5-((tetrahydro-2H-pyran-4-yl)methyl)-[1,2,4]triazolo[1,5-a]pyridin-2-yl)-1H-pyrazolo[4,3-b]pyridin-6-amine], for which the IC50 is 500 to 1000 nM.
For the compound `O[C@H]1CC[C@@H](Nc2cccc3nc(Nc4cnc5cn[nH]c5c4)nn23)CC1` [compound 107], the IC50 fell in the range of 0.005 to 250 nM.
As for `Cc1cc(Nc2nc3cccc(NC4CCOCC4)n3n2)cc2[nH]nc(C)c12` [compound 108], the IC50 lay within 0.005 to 250 nM.
The value for `Cc1cc(Nc2nc3cccc(N[C@H]4CC[C@@H](O)CC4)n3n2)cc2c1C(C)(C)C(=O)N2` [compound 109, cis-6-(5-(4-hydroxycyclohexylamino)-[1,2,4]triazolo[1,5-a]pyridin-2-ylamino)-3,3,4-trimethylindolin-2-one] was 0.005 to 250 nM.
For the compound `CN1C(=O)C(C)(C)c2ccc(Nc3nc4cccc(N[C@H]5CC[C@](C)(O)CC5)n4n3)cc21` [compound 110], the IC50 fell in the range of 0.005 to 250 nM.
Take `c1cc(NC2CCOCC2)n2nc(Nc3cnc4cn[nH]c4c3)nc2c1` [compound 111]: the IC50 was in the range of 1000 to 10000 nM.
The value for `O[C@H]1CC[C@@H](Nc2cccc3nc(Nc4ccn5ccnc5c4)nn23)CC1` [compound 112, cis-4-(2-(imidazo[1,2-a]pyridin-7-ylamino)-[1,2,4]triazolo[1,5-a]pyridin-5-ylamino)cyclohexanol] was 1000 to 10000 nM.
On to `CC1(C)NC(=O)c2cc(Nc3nc4cccc(CC5CCOCC5)n4n3)ccc21` [compound 113, 3,3-dimethyl-6-(5-((tetrahydro-2H-pyran-4-yl)methyl)-[1,2,4]triazolo[1,5-a]pyridin-2-ylamino)isoindolin-1-one], for which the IC50 is 1000 to 10000 nM.
For `CC1(C)C(=O)Nc2cc(Nc3nc4cccc(N5CCC(O)CC5)n4n3)ccc21` [compound 114, 6-(5-(4-hydroxypiperidin-1-yl)-[1,2,4]triazolo[1,5-a]pyridin-2-ylamino)-3,3-dimethylindolin-2-one], the IC50 is 0.005 to 250 nM.
Take `Cc1n[nH]c2ccc(Nc3nc4cccc(N[C@@H]5CCOC5)n4n3)cc12` [compound 115]: the IC50 fell in the range of 250 to 500 nM.
On to `Cc1n[nH]c2ccc(Nc3nc4cccc(CC5CCOCC5)n4n3)cc12` [compound 116, N-(3-methyl-1H-indazol-5-yl)-5-((tetrahydro-2H-pyran-4-yl)methyl)-[1,2,4]triazolo[1,5-a]pyridin-2-amine], for which the IC50 is 0.005 to 250 nM.
Consider `Cc1n[nH]c2ccc(Nc3nc4cccc(NC5CCOCC5)n4n3)cc12` [compound 117], for which the IC50 lay within 500 to 1000 nM.
As for `CN1C(=O)Cc2ccc(Nc3nc4cccc(CC5CCOCC5)n4n3)cc21` [compound 118, 1-methyl-6-(5-((tetrahydro-2H-pyran-4-yl)methyl)-[1,2,4]triazolo[1,5-a]pyridin-2-ylamino)indolin-2-one], the IC50 is 1000 to 10000 nM.
Consider `CN1C(=O)Cc2ccc(Nc3nc4cccc(NC5CCOCC5)n4n3)cc21` [compound 119, 1-methyl-6-(5-(tetrahydro-2H-pyran-4-ylamino)-[1,2,4]triazolo[1,5-a]pyridin-2-ylamino)indolin-2-one], for which the IC50 was in the range of 1000 to 10000 nM.
Consider `CC1(C)NC(=O)c2cc(Nc3nc4cccc(N[C@H]5CC[C@@H](O)CC5)n4n3)ccc21` [compound 120, cis-6-(5-(4-hydroxycyclohexylamino)-[1,2,4]triazolo[1,5-a]pyridin-2-ylamino)-3,3-dimethylisoindolin-1-one], for which the IC50 fell in the range of 250 to 500 nM.
Regarding `Cc1cc(Nc2nc3cccc(Cc4ccnc(O)c4)n3n2)cc2[nH]ncc12` [compound 124, 4-((2-(4-methyl-1H-indazol-6-ylamino)-[1,2,4]triazolo[1,5-a]pyridin-5-yl)methyl)pyridine-2-ol], the IC50 was 0.005 to 250 nM.
Consider `Cc1cc(Nc2nc3cccc(NC4CCOCC4)n3n2)cc2c1C(C)(C)C(=O)N2` [compound 125, 3,3,4-trimethyl-6-(5-(tetrahydro-2H-pyran-4-ylamino)-[1,2,4]triazolo[1,5-a]pyridin-2-ylamino)indolin-2-one], for which the IC50 was in the range of 0.005 to 250 nM.
Take `Cc1cc(Nc2nc3cccc(CC4CCOCC4)n3n2)cc2c1C(C)(C)C(=O)N2` [compound 126]: the IC50 is 0.005 to 250 nM.
The value for `Cc1n[nH]c2ccc(Nc3nc4cccc(N[C@H]5CC[C@H](O)CC5)n4n3)cc12` [compound 127, trans-4-(2-(3-methyl-1H-indazol-5-ylamino)-[1,2,4]triazolo[1,5-a]pyridin-5-ylamino)cyclohexanol] was 0.005 to 250 nM; that for `CC1(C)NC(=O)c2cc(Nc3nc4cccc(NC5CCOCC5)n4n3)ccc21` [compound 128, 3,3-dimethyl-6-(5-(tetrahydro-2H-pyran-4-ylamino)-[1,2,4]triazolo[1,5-a]pyridin-2-ylamino)isoindolin-1-one] was 500 to 1000 nM; that for `FC(F)(F)c1n[nH]c2cc(Nc3nc4cccc(NC5CCOCC5)n4n3)ccc12` [compound 129] was 250 to 500 nM.
With `COCc1nc2ccc(Nc3nc4cccc(Cc5ccnc(O)c5)n4n3)cc2[nH]1` [compound 130], the half-inhibitory concentration (IC50) is 0.005 to 250 nM.
Regarding `CC1(C)C(=O)Nc2cc(Nc3nc4cccc(N[C@@H]5CCCNC5)n4n3)ccc21` [compound 131, (R)-3,3-dimethyl-6-(5-(piperidin-3-ylamino)-[1,2,4]triazolo[1,5-a]pyridin-2-ylamino)indolin-2-one], the IC50 was in the range of 0.005 to 250 nM.
For the compound `COCc1nc2ccc(Nc3nc4cccc(CC5CCOCC5)n4n3)cc2[nH]1` [compound 132, N-(2-(methoxymethyl)-1H-benzo[d]imidazol-6-yl)-5-((tetrahydro-2H-pyran-4-yl)methyl)-[1,2,4]triazolo[1,5-a]pyridin-2-amine], the IC50 lay in the range of 0.005 to 250 nM.
As for `CC1(C)C(=O)Nc2cc(Nc3nc4cccc(O[C@H]5CCOC5)n4n3)ccc21` [compound 133, (S)-3,3-dimethyl-6-(5-(tetrahydrofuran-3-yloxy)-[1,2,4]triazolo[1,5-a]pyridin-2-ylamino)indolin-2-one], the IC50 was 250 to 500 nM.
